Measurements reported in US20090075902A1, “INHIBITING THE SIGNS OF AGING BY INHIBITING NF-KAPPA B ACTIVATION” (priority 2007, published 2009).

Tests used:
Ercc^−/Δ mouse = experiment: Delayed onset of frailty in a mouse treated with Compound A; type: in vivo; conditions: 5 MG/KG of Compound A, n=1; oil control n=3
Method: Delayed onset of frailty in an Ercc^−/Δ mouse treated with 5 MG/KG of Compound A

NF-κB activation = conditions: (Wen 2006); cited from earlier work
Ercc1^−/Δ mice [1] = experiment: Third series: double blinded twin study, 8K-NBD versus negative control 8K-mNBD; type: in vivo, mouse
Method: FIG. 12. Treatment schedule for third series of experiments; treatment with 8K-NBD or negative control 8k-mNBD.
In a third series of experiments, a different treatment regimen was used (FIG. 12) in which treatment with 8K-NBD or a negative control peptide, 8K-mNBD (having a mutated sequence, […] (SEQ ID NO:7)) was initiated earlier than the above regimens at approximately 5 weeks (8K-NBD or 8K-mNBD, 10 mg/kg) administered intraperitoneally three times per week). This was a double blinded twin study designed to eliminate genetic and environmental variables.
FIG. 13 presents a table showing the phenotypic changes associated with aging in mice treated with 8k-NBD or negative control 8k-mNBD. The overall aging score was improved by 30 percent in 8K-NBD versus 8K-mNBD-treated mice, indicating a significant delay in the onset of age-related symptoms corresponding to over a decade in human life.
FIG. 15A-D presents a comparison of levels of hepatocellular senescence, as measured by staining for p16 protein, in young and senescent wild-type mice as well as Ercc1^−/Δ mice treated with either 8K-NBD or negative control 8K-mNBD according to the regimen of FIG. 12 at the age of 18 weeks.

Ercc1^−/Δ mice [2] = experiment: Second series: 8K-NBD in an older symptomatic mouse, liver and skeletal muscle histopathology; type: in vivo
Method: FIG. 10. Exposure paradigm for pilot study to determine the impact of 8K-NBD on histopathologic changes in progeroid Ercc1^−/Δ mice. 8K-NBD was dissolved in 5% DMSO in PBS and injected i.p.
In a second series of experiments, an older Ercc1^−/Δ mouse, which already had progeroid symptoms, was chronically exposed to 8K-NBD then euthanized at 20 wk of age to determine if 8K-NBD affected histopathologic changes associated with aging (FIG. 10). Liver and skeletal muscle (SKM) were dissected, fixed, sectioned and stained. Tissues were compared to age-matched untreated Ercc1^−/Δ. The liver of Ercc1^−/Δ mice display large polyploid nuclei (FIG. 11A, 10×) characteristic of senescent hepatocytes (Gupta, 2000). […] This is consistent with previous reports that in mouse models of numerous inflammatory myopathies, persistent NF-κB activity is associated with necrotic and regenerative changes (Monici et al., 2003).

Ercc1^−/Δ mice [3] = experiment: Pilot study: chronic 8K-NBD treatment, onset and severity of progeroid symptoms; type: in vivo, mouse
Method: FIG. 6. Exposure paradigm for pilot study to determine the impact of 8K-NBD on quality of life in progeroid Ercc1^−/Δ mice. 8K-NBD was dissolved in 5% DMSO in PBS and injected intraperitoneally. A littermate Ercc1^−/Δ mouse was treated with an equal volume of vehicle only (PBS). The study was concluded at 19 wks when the mouse treated with vehicle only became profoundly ataxic and cachectic, requiring euthanization.
Studies were performed to determine if inhibition of NF-κB activation ameliorates accelerated aging in Ercc1^−/Δ mice. An Ercc1^−/Δ mouse was chronically treated with 8K-NBD peptide as described in FIG. 6. The age at onset of numerous progeroid symptoms were recorded (Table II). Ataxia and priapism, both caused by neurodegeneration (Rolig and McKinnon, 2000), were delayed by 3 wks and 1.5 wks respectively in the mouse treated with 8K-NBD.
Motor strength and coordination were measured weekly in the mice by testing their ability to cross a balance beam (FIG. 9A) and to remain suspended from a wire (FIG. 9B).

mice = conditions: cited from earlier work
[4] = 8K-NBD 10 mg/kg i.p. chronically, versus sibling treated with vehicle only
[5] = 8K-NBD versus vehicle-treated mouse

Molecule: Cl.O=C1Nc2nc(-c3c(O)cccc3OCC3CC3)cc([C@@H]3CCCNC3)c2CO1 [Compound A]
- Ataxia (onset) (Ercc^−/Δ mouse): 19.3
- Dystonia (onset) (Ercc^−/Δ mouse): 13.7
- Kyphosis (onset) (Ercc^−/Δ mouse): 14.3
- Trembling (onset) (Ercc^−/Δ mouse): 12.7
- Wasting (onset) (Ercc^−/Δ mouse): 19.7

Molecule: COc1c(Cl)cc2c([nH]c3cnccc32)c1NC(=O)c1cccnc1C [ML120B, (N-6-chloro-7-methoxy-9H-β-carbolin-8-yl)-2-methylnicotinamide]
- IC50 (NF-κB activation): 0.06 µM

Molecule: KKKKKKKK-GG-TALDWSWLQTE (SEQ ID NO:2) (KKKKKKKKGGTALDWSWLQTE) [8K-NBD]
- Improvement of overall aging score (Ercc1^−/Δ mice [1]; 8K-NBD versus 8K-mNBD, 10 mg/kg i.p. three times per week from approximately 5 weeks): 30%
- Hepatocellular senescence, p16 protein staining pattern (Ercc1^−/Δ mice [1]; at the age of 18 weeks): more closely resembles that of a young, healthy mouse
- Neurodegeneration, GFAP staining pattern (Ercc1^−/Δ mice [1]; at the age of 18 weeks, relative to 8K-mNBD-treated animal): more closely resembles that of the young wild-type mouse
- Skeletal muscle (SKM) pathology (Ercc1^−/Δ mice [2]; at 20 wk of age, untreated Ercc1^−/Δ SKM showed necrosis): devoid of pathologic changes
- Hepatocyte cytoplasm to nuclear ratio (Ercc1^−/Δ mice [2]; liver at 20 wk of age, versus age-matched untreated Ercc1^−/Δ): much higher
- Hepatic architecture (Ercc1^−/Δ mice [2]; liver at 20 wk of age, suggestive of liver regeneration): effaced
- Delay of onset of ataxia (Ercc1^−/Δ mice [3]; [4]): 3 wks
- Delay of onset of priapism (Ercc1^−/Δ mice [3]; [4]): 1.5 wks
- Body weight maintenance (Ercc1^−/Δ mice [3]; 8K-NBD versus untreated and vehicle-treated mice): maintained weight longer
- Ambulation and general appearance (Ercc1^−/Δ mice [3]; [5]): improved
- Severity of dystonia, trembling and kyphosis (Ercc1^−/Δ mice [3]; [5]): significantly reduced
- Delay in onset of symptoms (cachexia, loss of muscle mass and vision) (Ercc1^−/Δ mice [3]; 8K-NBD versus vehicle-treated sibling): ≥ 3 wk
- Motor strength and coordination (balance beam, suspension from a wire) (Ercc1^−/Δ mice [3]; tested weekly, versus untreated mice (n=7)): tended to perform better
- Onset of cachexia, loss of muscle mass and vision (Ercc1^−/Δ mice [3]; within the 19 wk period of the study, vehicle mouse showed them by 16 wks of age): did not arise

Molecule: KKKKKKKKGGTALDASALQTE (SEQ ID NO:7) [8K-mNBD, reference compound]
- Degree of osteoporotic changes (micro-CT of vertebra) (Ercc1^−/Δ mice [1]; at 17 weeks of age, compared with 8K-NBD-treated sibling and wild-type littermate): appears greatest
- Hepatocellular senescence, p16 protein staining pattern (Ercc1^−/Δ mice [1]; at the age of 18 weeks): more closely resembles the pattern in senescent wild-type hepatocytes

Molecule: TALDWSWLQTE; SEQ ID NO:1 [NBD peptide]
- Toxicity on systemic administration (mice): not toxic
